{"source": "patent US7727955B2", "about": "“Pharmaceutical compositions based on NK2 antagonists for pediatric use” (Laboratori Guidotti S.p.A., priority 2004, dated 2010)", "key": {"infant rats": {"tested_on": "infant rats", "assay": "Basal intestinal transit in infant rats without agonist administration", "type": "in vivo", "conditions": "oral, nepadutant 2.5 mg/kg, measured at 6 hours after administration, no agonist", "method": "(§1) The formulations of the present invention were tested for their biological activity in vivo on newborn rats in accordance with the following method:\n(§2) a) The NK2 selective agonist β-Ala^8-NKA(4-10) was administered intraperitoneally to infant rats aged between 7 and 10 days, both males and females, at a dose of 15 μg/kg. A 10% suspension of carbon in 1% methylcellulose was then administered orally to the animals at a volume of 15 ml/kg. The same carbon-based suspension was administered to a control group which had not received the NK2 agonist."}, "animal models of IBS": {"tested_on": "animal models of IBS", "conditions": "cited from earlier work"}, "[1]": {"design": "species or system rats", "conditions": "rat, in vivo, po"}, "NK2 receptors": {"biological_target": "T1, NK2 receptors (Rattus norvegicus, UniProt P16610)", "T1 construct": "prevent the increase in intestinal transit induced by the stimulation of NK2 receptors by the β-Ala^8-NKA(4-10) agonist; from tissue; host or cells: whole animal: infant rats aged 7-10 days (intestine, in vivo)", "T1 sequence (P16610 1-390)": "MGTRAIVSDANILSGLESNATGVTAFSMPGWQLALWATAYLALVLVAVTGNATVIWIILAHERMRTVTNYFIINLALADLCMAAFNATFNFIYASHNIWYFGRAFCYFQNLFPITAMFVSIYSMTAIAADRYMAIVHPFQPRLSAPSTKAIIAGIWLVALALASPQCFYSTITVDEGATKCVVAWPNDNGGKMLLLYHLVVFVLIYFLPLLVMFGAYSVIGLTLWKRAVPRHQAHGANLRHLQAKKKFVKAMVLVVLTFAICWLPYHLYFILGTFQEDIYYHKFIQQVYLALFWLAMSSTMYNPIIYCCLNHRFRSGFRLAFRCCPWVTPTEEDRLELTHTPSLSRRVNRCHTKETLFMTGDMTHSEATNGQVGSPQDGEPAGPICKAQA", "assay": "Intestinal transit of a carbon suspension in infant rats, increase induced by NK2 selective agonist β-Ala^8-NKA(4-10)", "type": "in vivo", "conditions": "infant rats aged 7-10 days", "method": "as §1, §2"}, "clinical": {"assay": "clinical", "conditions": "human, in vivo, po"}, "infantile colics": {"tested_on": "infantile colics", "conditions": "clinical evidence from literature; cited from earlier work"}}, "note": "Positions of bridges follow the written chain, without caps; N, C: chain ends. Non-standard residues stand in square brackets, D forms with d. Residues, ends and D or L forms follow the SMILES beside them. *: point of attachment. NH(β-GlcNAc) = CC(=O)N[C@@H]1[C@@H](O)[C@H](O)[C@@H](CO)O[C@H]1N*; Dap = NC[C@H](N)C(=O)O"}
{"molecule": "CC(=O)N[C@@H]1[C@@H](O)[C@H](O)[C@@H](CO)O[C@H]1NC(=O)C[C@@H]1NC(=O)[C@H](CC(C)C)NC(=O)[C@@H]2CNC(=O)C[C@H](NC1=O)C(=O)N[C@@H](Cc1c[nH]c3ccccc13)C(=O)N[C@@H](Cc1ccccc1)C(=O)N2", "note": "[Nepadutant, cyclo((Asn(β-D-2-deoxy-2-acetamido-Glc)-Asp-Trp-Phe-Dap-Leu)cyclo(2β-5β))] (cyclo(D(NH(β-GlcNAc))DWF[Dap]L); lactam 2-5)", "values": [{"measurement": "effect on basal intestinal transit", "setting": "infant rats", "result": "no effect on basal intestinal transit"}, {"measurement": "correction of hyperalgesia", "setting": "animal models of IBS", "result": "corrects hyperalgesia"}, {"measurement": "bioavailability in infant rats", "setting": "[1]", "result": "substantially enhanced"}, {"measurement": "prevention of the increase in intestinal transit induced by β-Ala^8-NKA(4-10)", "setting": "NK2 receptors; oral, nepadutant 0.5 and 2.5 mg/kg at 2, 4 and 6 hours before agonist 15 μg/kg i.p.", "result": "able to prevent the increase in intestinal transit"}, {"measurement": "bioavailability", "setting": "clinical", "result": 1, "unit": "%"}]}
{"molecule": "simethicone", "values": [{"measurement": "effect versus placebo", "setting": "infantile colics", "result": "no better than placebo"}]}
{"molecule": "β-Ala^8-NKA(4-10) [reference compound]", "values": [{"measurement": "increase in intestinal transit after agonist administration", "setting": "NK2 receptors; 15 μg/kg i.p., versus control group without agonist", "result": "significant increase in intestinal transit"}]}
